Data reported in the NIST ThermoML archive (doi:10.1016/j.jct.2005.10.001).

Legend:
[1] = Liquid; for mass density: 293.15 K, 101.33 kPa, Vibrating tube method
[2] = refractive index (Na D-line) (dimensionless); details: 293.15 K; 101.33 kPa; Liquid; Standard Abbe refractometry

C=C(C)OCC [2-ethoxy-1-propene]
Details | mass density [kg/m3] | refractive index
[1] | 771.2 | –
[2] | – | 1.3913

[1], Ebulliometric method (Recirculating still)
Details | vapor or sublimation pressure [kPa]
320.98 K | 62.74
322.13 K | 65.19
322.7 K | 66.66
323.15 K | 67.84
323.47 K | 68.4
324.5 K | 70.65
325.43 K | 72.69
326.52 K | 75.47
327.43 K | 77.89
327.69 K | 79.99
328.26 K | 80.16
329.39 K | 83.21
329.89 K | 85.35
329.96 K | 86.66
331.07 K | 88.17
331.1 K | 89.99
331.48 K | 90.62
332.88 K | 93.41
333.15 K | 95.98
333.68 K | 96.12
334.46 K | 98.47
334.57 K | 99.82
334.67 K | 99.99

CC(C)=O [acetone]
Details | mass density [kg/m3] | refractive index
[1] | 784.5 | –
[2] | – | 1.359

[1]
Details | vapor or sublimation pressure [kPa]
317.58 K | 66.66
322.68 K | 79.99
323.15 K | 81.39
324.94 K | 86.66
328.98 K | 99.99

CCC(C)=O [butanone]
Details | mass density [kg/m3] | refractive index
[1] | 799.8 | –
[2] | – | 1.3765

[1]
Details | vapor or sublimation pressure [kPa]
333.15 K | 51.89
340.17 K | 66.66
345.51 K | 79.99
349.12 K | 89.99
352.3 K | 99.99
